From US7488811B2, “Macrolide compounds endowed with antiinflammatory activity” (Zambon Group S.p.A., priority 2002, dated 2009) come the findings set out here.

SMILES strings stand for the structures. Values after ≈ are worked out from the molar mass of the structure shown.

In data set [1] the test system is Enterococcus faecalis ATCC 29212. The data set can be described thus: Antibiotic activity, MIC or activity at 128 μg/ml. The note with it: Enter. faecalis ATCC 29212; for MIC: Enterococcus faecalis, ATCC29212. Format: cell-based. Here is the method: (§1) The MIC values were determined in liquid earth according to the method described in “Manual of Clinical Microbiology, 7th edition (1999), American Society for Microbiology”.

Data set [2] has as its system Streptococcus pneumoniae ATCC 49619. Put plainly: Antibiotic activity, MIC in liquid medium. Format: cell-based. To be noted: ATCC49619, Strep. pneum ATTC 49619. Here is the method: as §1
Data set [3] relates to Staphylococcus aureus ATCC 29213. Put plainly: Antibiotic activity, MIC in liquid medium. The format is cell-based. To be noted: ATCC29213, Staph. aureus ATCC 29213. How it is done:
as §1

For data set [4], the system named is Staphylococcus aureus ATCC 6538. The data set can be described thus: Antibiotic activity at 128 μg/ml. The format is cell-based. To be noted: Staph. aureus ATCC 6538. Here is the method: as §1
Data set [5] concerns Streptococcus pyogenes ATCC 19615. The data set can be described thus: Antibiotic activity at 128 μg/ml. The format is cell-based. To be noted: Strep. pyogenes ATTC 19615. How it is done: as §1
The test system of data set [6] is LPS-induced accumulation of neutrophils in rat lungs. Put plainly: LPS-induced pulmonary inflammation in rats (neutrophil count in bronchial fluid wash). Format: in vivo. To be noted: single oral dose 100, 40, 10 μmol/kg one hour before LPS 0.4 mg/kg endotracheal, 20 h, erythromycin: single oral dose 130 μmol/kg; for ED50: Rattus norvegicus, Neutrophil, read-out: ED50 (dose inducing 50% reduction in neutrophil count in bronchial fluid wash). Here is the method: B) LPS-Induced Pulmonary Inflammation in Rats • Administration
The rats received endotracheally, via the peroral route, a single dose of 0.4 mg/kg of LPS (E. coli, serotype 026:6). The tracheal instillation was performed under anaesthesia with halothane and, 20 hours after the endotracheal administration of LPS/saline solution, the animals were sacrificed by means of an overdose of urethane. • Washing
The lungs were washed with 4 aliquots of 5 ml each of saline solution with 10 IU ml^−1 heparin. The cell suspension was concentrated by low-speed centrifugation and the cell pellet was suspended. • Counting of the Cells and Differentiation.
The total cell count was performed in a haemocytometer.
The differential counting was performed on cytospin preparations stained with May-Grunwald-Giemsa (Tamaoki J., Tagaya E., Yamawaki I., Sakai, Nagai A., Konno K, 1995. Effect of erythromycin on endotoxin-induced microvascular leakage in the rat trachea and lungs. Am. J. Respir. Crit. Care Med., 151, 1582-8). The rats received the test compounds orally in doses of 100, 40 and 10 μmol/kg as a single administration dose orally one hour before exposure to LPS.
ED50 value is the dose that induced a 50% reduction in the neutrophil count in the bronchial fluid wash.
The data relating to erythromycin refers to an oral treatment with a single dose of 130 μmol/kg.

Data set [7] relates to PMA-induced oedema in mouse ear. Put plainly: Acute contact dermatitis: TPA (PMA)-induced ear oedema in mice. Format: in vivo. To be noted: CD1 mice, 500 μg/ear topical in TPDS 30 min before TPA 0.01%, 6 h. Here is the method: Groups of 5-6 CD1 mice (18-24 g) were used. • Administration of the compounds
All the macrolide compounds were dissolved in Trans-phase Delivery System (TPDS), a vehicle formed by 10% benzyl alcohol, 40% acetone and 50% isopropanol.
15 microlitres of the compounds (500 μg), dissolved in TPDS, were applied topically to the inner surface of an ear; 30 minutes later, 12 microlitres of a solution of tetradecanoylphorbol acetate (TPA) at a concentration of 0.01% dissolved in acetone were applied to the same area.
Six hours later, the animals were sacrificed by inhalation of CO2. • Evaluation of the results
Two methods were used to evaluate the auricular oedema: • a) Weight of a given portion of auricular pinna. • b) Measurement of the auricular thickness using precision spring callipers.
The degree of oedema was calculated by subtracting the weight or the thickness of the untreated ear from that of the contralateral treated ear. To determine the degree of remission of the oedema, the difference (weight or thickness) of the groups treated with TPA+macrolides was then compared with the groups treated with TPA alone.
The activity of the macrolide compounds was measured by using the modified method of Zunic et al. (1998): MDL (Lysyl) GDP, a non-toxic muramyl dipeptide derivative inhibits cytokine production by activated macrophages and protects mice from phorbol ester- and oxazolone-induced inflammation (J. Invest. Dermatol., 111(1), 77-82).
The data relating to erythromycin and azythromycin concern the treatment with a single dose of 500 μg/ear.

The nature of data set [8]: Water solubility noted at work-up. The format is physicochemical. The note with it: remark in the work-up. Here is the method: Compound 19 was prepared from intermediate 28 (600 mg, 0.64 mmol) according to the procedures described for compound 1. Given that the product is water-soluble, the crude solid was dissolved in water (50′ ml) and washed with CH2Cl2 (3×20 ml). The solvent was evaporated from the aqueous phase under vacuum and dried to give compound 19 (480 mg, 95% yield) as a crystalline solid. • [M+1]^+ 775

[9] abbreviates: method a: weight of a given portion of auricular pinna.

Take `CC[C@H]1OC(=O)[C@H](C)[C@@H](O)[C@H](C)[C@@H](O[C@@H]2O[C@H](C)C[C@H](N(C)C(C)=O)[C@H]2O)C(C)(O)C[C@@H](C)[C@H](O)[C@H](C)[C@@H](O)[C@]1(C)O` (stereo partly shown) [Compound 1]: the “Antibiotic activity at 128 μg/ml” value in data set [1] (128 μg/ml), in data set [4] (128 μg/ml) and in data set [5] (128 μg/ml) was “not active” in each case. For the same molecule, the MIC in data set [1], in data set [2] and in data set [3] was greater than 128 µg/mL throughout. In data set [6], the ED50 was 7 µmol/kg. The same molecule displayed an inhibition in vivo at 500 µg/ear in data set [7] (setting [9]) of 65.6%.

For the molecule `CC[C@H]1OC(=O)[C@H](C)[C@@H](O)[C@H](C)[C@@H](O[C@@H]2O[C@H](C)CC[C@H]2O)C(C)(O)C[C@@H](C)/C(=N\O)[C@H](C)[C@@H](O)[C@]1(C)O` (stereo partly shown) [Compound 14], the ED50 in data set [6] turned out to be 15 µmol/kg. Moreover, the inhibition in vivo at 500 µg/ear in data set [7] (setting [9]) came out at 71.5%.

With `CC[C@H]1OC(=O)[C@H](C)[C@@H](O)[C@H](C)[C@H](O[C@@H]2O[C@H](C)CC(N(C)C)[C@@H]2O)[C@](C)(O)C[C@@H](C)/C(=N\OCCNCCNCc2nccs2)[C@H](C)[C@H](O)[C@]1(C)O` (stereo partly shown) [Compound 19], the MIC in data set [1] is greater than 128 µg/mL; in data set [2], 16 µg/mL (≈ 20.7 µM); in data set [3] it was greater than 128 µg/mL. This molecule showed an inhibition in vivo at 500 µg/ear in data set [7] (method b: auricular thickness by precision spring callipers) of 28.2%. The Solubility in water result in data set [8] is on record as “water-soluble”.

As for `CC[C@H]1OC(=O)[C@H](C)[C@@H](O[C@H]2C[C@@](C)(OC)[C@@H](O)[C@H](C)O2)[C@H](C)[C@@H](O[C@@H]2O[C@H](C)C[C@H](N(C)C)[C@H]2O)[C@](C)(O)C[C@@H](C)C(=O)[C@H](C)[C@@H](O)[C@]1(C)O` [Erythromycin, reference compound], the MIC turned out to be 1 µg/mL (≈ 1.36 µM) in data set [1]; 0.12 µg/mL (≈ 0.164 µM) in data set [2]; 0.25 µg/mL (≈ 0.341 µM) in data set [3]; 0.25 µg/mL (≈ 0.341 µM) in data set [4] (Staphylococcus aureus, ATCC6538); 0.12 µg/mL (≈ 0.164 µM) in data set [5] (Streptococcus pyogenes, ATCC19615). In addition, the “ED50 (dose inducing 50% reduction in neutrophil count in bronchial fluid wash)” value in data set [6] is on record as “Not active”. In data set [7] (setting [9]), this molecule came in with an inhibition in vivo at 500 µg/ear of 42%.

In general, MIC refers to the least concentration at which growth counts as inhibited. A low value points to a more susceptible organism. A word on the ED50: it is the midpoint of the dose-response relation. One may read the inhibition in vivo as the relative decrease from the control value, in per cent.
